The numbers were not newly measured in US6432453B1, “Dietary supplement containing glycerol ester of conjugated linoleic acid and rosemary extract containing carnosic acid” (Metagenics, Inc., priority 2000, dated 2002), which cites them from elsewhere.

Like-named read-outs stand apart in the source and are kept apart here.

For series [1] the following is noted: CLA-supplemented subjects, three months, no change of diet.
The conditions of series [2]: free fatty acid form.

For the substance conjugated linoleic acid [CLA], in series [1], the body fat lost entry is reported as “up to 20%”. In addition, the “half-life (oxidation)” value in series [2] (25° C.) was 336 h; in series [2] (75° C.), 7 h.
